Reference: US20160214996A1, “MACROCYCLIC COMPOUNDS FOR THE TREATMENT OF PROLIFERATIVE DISEASES” (CS Pharmasciences, Inc., priority 2013, published 2016)

Assays:
ALK wild type = target: T1, ALK wild type (Homo sapiens, UniProt Q9UM73); assay: ALK wild type standard HTRF enzyme assay; assay type: biochemical; details: 0.5 nM ALK wild type, 30 μM ATP, 90 minutes at room temperature, read-out: IC50 (nM) ALK_wt
T1 construct: purchased Carna Biosciences (Japan)
Description: (§1) Wild type ALK and L1196M mutant ALK enzyme inhibition by the compounds of formula (I) was measured using an HTRF assay.
(§2) ALK wild type and ALK L1196M were acquired from Carna Biosciences (Japan). A standard HTRF kit (containing Eu-labeled TK1 antibody, XL665, biotin conjugated TK1 peptide, 5× enzymatic buffer and 1×HTRF detection buffer) were purchased from Cis-Bio International. Plates were read on an Envision multi-label plate reader (Perkin Elmer).
(§3) In both assays, the compounds were tested in 11 doses in duplicate with 3-fold dilution as the final concentrations were from 10 μM to 0.17 nM. Compound 13a was tested with lower top concentrations of 1 μM due to high potency.
The enzyme reaction mixture of ALK wild type standard HTRF assay contained 0.5 nM ALK wild type, 1 μM biotin-TK1 peptide, 30 μM ATP and 50 nM SEB in 1× enzymatic reaction buffer containing 50 mM (pH 7.0) HEPES, 5 mM MgCl2, 0.02% NaN3, 0.01% BSA, 0.1 mM Orthovanadate and 1 mM DTT at a final volume of 10 μl. The enzyme reaction was carried out at room temperature in white Proxiplate 384-Plus plate (PerkinElmer) for 90 minutes.
(§4) The detection reagents ([…]) were added at final concentrations of 2 nM antibody and 62.5 nM XL665. The plates were incubated at room temperature for 60 minutes and then read in the Envision plate reader.
(§5) The readouts were transformed into inhibition rate % by the equation of (Ratio-Min)/(Max-Min)*100%.

ALK L1196M = target: T2, ALK L1196M (Homo sapiens, UniProt Q9UM73, L1196M); assay: ALK L1196M standard HTRF enzyme assay; assay type: biochemical; details: 0.15 nM ALK L1196M, 30 μM ATP, 60 minutes at room temperature, read-out: IC50 (nM) ALK_L1196M
T2 construct: purchased Carna Biosciences (Japan)
Description: as §1, §2, §3
[…]. The enzyme reaction was carried out at room temperature in white Proxiplate 384-Plus plate (PerkinElmer) for 60 minutes.
as §4, §5

T1 sequence (Q9UM73 19-1620): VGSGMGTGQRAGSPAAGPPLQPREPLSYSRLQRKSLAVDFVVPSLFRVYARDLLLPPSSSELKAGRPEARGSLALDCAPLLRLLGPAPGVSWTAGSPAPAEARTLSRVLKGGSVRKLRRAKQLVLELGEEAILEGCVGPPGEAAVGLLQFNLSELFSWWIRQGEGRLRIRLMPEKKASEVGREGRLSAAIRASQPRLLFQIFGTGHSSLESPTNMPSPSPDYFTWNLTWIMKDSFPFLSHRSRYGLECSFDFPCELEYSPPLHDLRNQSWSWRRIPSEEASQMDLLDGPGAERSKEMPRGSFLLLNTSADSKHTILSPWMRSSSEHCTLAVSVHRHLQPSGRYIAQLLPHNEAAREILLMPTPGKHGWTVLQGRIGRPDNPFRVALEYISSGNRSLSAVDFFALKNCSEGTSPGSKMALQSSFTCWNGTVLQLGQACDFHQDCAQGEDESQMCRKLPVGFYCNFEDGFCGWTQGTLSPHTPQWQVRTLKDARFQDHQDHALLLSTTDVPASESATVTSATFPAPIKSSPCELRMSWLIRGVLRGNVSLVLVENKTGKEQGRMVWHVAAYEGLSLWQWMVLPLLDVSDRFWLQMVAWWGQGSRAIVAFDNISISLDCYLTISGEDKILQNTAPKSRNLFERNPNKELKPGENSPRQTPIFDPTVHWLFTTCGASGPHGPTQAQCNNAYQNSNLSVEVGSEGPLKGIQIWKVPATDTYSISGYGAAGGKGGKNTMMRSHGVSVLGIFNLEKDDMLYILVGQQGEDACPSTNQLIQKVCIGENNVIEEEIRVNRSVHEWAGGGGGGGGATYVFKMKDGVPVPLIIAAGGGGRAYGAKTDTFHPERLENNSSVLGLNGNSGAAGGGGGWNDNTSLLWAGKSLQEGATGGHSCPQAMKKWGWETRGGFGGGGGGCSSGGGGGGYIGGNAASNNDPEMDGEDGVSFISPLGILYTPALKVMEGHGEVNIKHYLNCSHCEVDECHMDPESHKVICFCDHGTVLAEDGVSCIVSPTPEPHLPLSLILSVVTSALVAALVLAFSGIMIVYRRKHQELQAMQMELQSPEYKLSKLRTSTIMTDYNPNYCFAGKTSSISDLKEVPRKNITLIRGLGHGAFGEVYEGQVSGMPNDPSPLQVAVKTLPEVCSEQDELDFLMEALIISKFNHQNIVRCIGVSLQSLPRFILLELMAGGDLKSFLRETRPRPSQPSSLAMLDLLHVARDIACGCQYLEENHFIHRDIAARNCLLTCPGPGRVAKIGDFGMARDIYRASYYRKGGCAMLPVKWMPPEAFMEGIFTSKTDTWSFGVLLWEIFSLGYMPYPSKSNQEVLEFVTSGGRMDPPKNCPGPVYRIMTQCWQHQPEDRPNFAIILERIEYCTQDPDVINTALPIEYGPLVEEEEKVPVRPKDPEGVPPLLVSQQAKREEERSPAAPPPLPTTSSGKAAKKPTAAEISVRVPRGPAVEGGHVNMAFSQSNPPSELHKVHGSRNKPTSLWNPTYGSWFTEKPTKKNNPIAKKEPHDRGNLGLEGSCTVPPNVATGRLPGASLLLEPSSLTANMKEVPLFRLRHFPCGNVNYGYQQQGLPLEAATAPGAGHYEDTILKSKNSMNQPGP
T2 sequence (Q9UM73 19-1620 L1196M): as the sequence (Q9UM73 19-1620) above, with L1178M counted along it

| Structure (SMILES) | IC50 (ALK wild type) [nM] | IC50 (ALK L1196M) [nM] |
| --- | --- | --- |
| CC1Oc2cc(cnc2N)-c2c(nn(C)c2C#N)NC(=O)COc2ccc(F)cc21 (stereo not shown) [Compound 15] | 2370 |  |
| CC1Oc2cc(cnc2N)-c2c(nn(C)c2C#N)N(C)C(=O)COc2ccc(F)cc21 (single isomer, unassigned) [Compound 16] | 34.8 | 529 |
| CC1Oc2cc(cnc2N)-c2c(nn(C)c2C#N)N(C)C(=O)COc2ccc(F)cc21 (single isomer, unassigned) [Compound 17] | 7430 |  |
